Measured values: PubChem BioAssay (NCI)
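Method: 48-hour compound exposure of cells in 96-well plates, five concentrations, linear interpolation of endpoints. GI50 marks 50% less growth. TGI: concentration producing complete growth inhibition.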

Key:
Assay in all cases: DTP human tumour cell line panel, 48 h
[1] = tested on: NCI-H226 lung
[2] = tested on: NCI-H23 lung
[3] = tested on: NCI-H460 lung
[4] = tested on: NCI-H522 lung
[5] = tested on: NCI/ADR-RES ovarian
[6] = tested on: OVCAR-3 ovarian
[7] = tested on: OVCAR-4 ovarian
[8] = tested on: OVCAR-5 ovarian
[9] = tested on: OVCAR-8 ovarian
[10] = tested on: PC-3 prostate
[11] = tested on: RPMI-8226 leukemia
[12] = tested on: RXF 393 renal
[13] = tested on: SF-295 CNS
[14] = tested on: SF-539 CNS
[15] = tested on: SK-MEL-2 melanoma
[16] = tested on: SK-MEL-28 melanoma
[17] = tested on: SK-MEL-5 melanoma
[18] = tested on: SK-OV-3 ovarian
[19] = tested on: SN12C renal
[20] = tested on: SNB-19 CNS
[21] = tested on: SNB-75 CNS
[22] = tested on: SR leukemia
[23] = tested on: SW-620 colon
[24] = tested on: T-47D breast
[25] = tested on: TK-10 renal
[26] = tested on: U251 CNS
[27] = tested on: UACC-257 melanoma
[28] = tested on: UACC-62 melanoma
[29] = tested on: UO-31 renal

For `Nc1ncnc2c1c(-c1ccc(Oc3ccccc3)cc1)nn2C[C@H]1SSC[C@H]1O`, the TGI [1] was 3420 nM, the GI50 [2] was 242 nM and the TGI [2] was 968 nM. It also gave a GI50 [3] of 23.3 nM, a TGI [3] of 56.5 nM and a GI50 [4] of 953 nM. The TGI [4] was 3160 nM, the GI50 [5] was 1770 nM and the TGI [5] was 4870 nM. For the same compound, the GI50 [6] was 188 nM, the TGI [6] was 421 nM and the GI50 [7] was 1150 nM. The TGI [7] was greater than 100000 nM, the GI50 [8] was 2200 nM and the TGI [8] was greater than 31300 nM. For the same compound, the GI50 [9] was 1090 nM, the TGI [9] was 3870 nM and the GI50 [10] was 2050 nM. For the same compound, the TGI [10] was 11800 nM, the GI50 [11] was 1950 nM and the TGI [11] was 9130 nM. The GI50 [12] was 1350 nM, the TGI [12] was 4310 nM and the GI50 [13] was 678 nM. For the same compound, the TGI [13] was 3190 nM, the GI50 [14] was 441 nM and the TGI [14] was 5970 nM. It also gave a GI50 [15] of 160 nM, a TGI [15] of 435 nM and a GI50 [16] of 25.8 nM. The TGI [16] was 79.3 nM, the GI50 [17] was 159 nM and the TGI [17] was 372 nM. For the same compound, the GI50 [18] was 222 nM, the TGI [18] was 1310 nM and the GI50 [19] was 1400 nM. The TGI [19] was 4670 nM, the GI50 [20] was 510 nM and the TGI [20] was 20100 nM. It also gave a GI50 [21] of 2880 nM, a TGI [21] greater than 24000 nM and a GI50 [22] of 28.9 nM. For the same compound, the TGI [22] was 127 nM, the GI50 [23] was 395 nM and the TGI [23] was greater than 100000 nM. It also gave a GI50 [24] of 205 nM, a TGI [24] of 518 nM and a GI50 [25] of 289 nM. For the same compound, the TGI [25] was 1000 nM, the GI50 [26] was 1200 nM and the TGI [26] was 4270 nM. The GI50 [27] was 208 nM, the TGI [27] was 1360 nM and the GI50 [28] was 37.7 nM. For the same compound, the TGI [28] was 145 nM, the GI50 [29] was 468 nM and the TGI [29] was 2770 nM.
